Measurements: ChEMBL document CHEMBL1201862, “PubChem BioAssay data set” (2004)
Active and inactive are the calls of the source.

Columns and labels:
A-375 [1] = assay: MITF: Counter assay: A375 proliferation Measured in Cell-Based System Using Plate Reader - 2084-03_Inhibitor_Dose_DryPowder_Activity. [Related pubchem assays (depositor defined):AID488944]; format: functional; details: Homo sapiens
A-375 [2] = assay: proliferation inhibition in MITF-low A375 cells – cell-based, cherry-pick samples, set 2, counter-screen for MITF modulator project, dose response (AID 540335); format: functional; details: Homo sapiens
Jurkat = assay: SAR Analysis of small molecule inhibitors of […] specific antigen receptor-induced NF-kB activation in a Jurkat cell line using a luminescence assay - Set 3. [Related pubchem assays (depositor defined):AID435022, AID435025, AID465]; format: functional, cell-based; details: Homo sapiens
HEK293 [3] = assay: SAR Analysis of small molecule inhibitors of B-cell specific antigen receptor-induced NF-kB activation in a HEK-293T cell line using a luminescence assay - Set 2. [Related pubchem assays (depositor defined):AID435022, AID435025, AID489021]; format: functional, cell-based; details: Homo sapiens
HEK293 [4] = assay: HEK293T cell viability loss, resazurin readout – resazurin fluorescence, cytotoxicity control for NF-kB activator project, SAR follow-up (AID 493251); format: functional, cell-based; details: Homo sapiens
SUMO E1/E2 = SUMO E1/E2 (Homo sapiens, UniProt P63279+Q9UBE0+Q9UBT2); assay: SAR analysis of SUMOylation using HTRF in an in-Vitro dose response assay. [Related pubchem assays (depositor defined):AID2006, AID2011, AID2018, AID2069, AID2658]; format: functional
[5] = target: T1, Voltage-gated N-type calcium channel alpha-1B subunit/Amyloid beta A4 precursor protein-binding family A member 1 (Homo sapiens, UniProt Q00975+Q02410); assay: disruptors of Mint-PDZ/N-type channel peptide interaction – biochemical, HTRF, set 2, SAR follow-up (AID 434980); format: functional
[6] = target: T1, Voltage-gated N-type calcium channel alpha-1B subunit/Amyloid beta A4 precursor protein-binding family A member 1; assay: disruptors of Mint-PDZ/N-type channel peptide interaction – biochemical, HTRF, SAR follow-up (AID 2489); format: functional
[7] = target: DNA repair protein RAD52 homolog (Homo sapiens, UniProt P43351); format: functional, biochemical
[8] = NIH-3T3 fibroblast cytotoxicity, dose response, cytotoxicity control, cell-based, fluorescence, Alamar Blue, secondary assay (AID 2327); format: functional;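 also: NIH-3T3 mouse fibroblasts cultured with fluconazole at 8 µg/mL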
[9] = fluconazole-exposed Candida albicans growth modulators – fluorescence, retest, confirmation (AID 2467); format: functional, cell-based
Exodeoxyribonuclease V = Exodeoxyribonuclease V (Escherichia coli (strain K12), UniProt P04993+P07648+P08394); assay: RecBCD inhibition via phage-restricted bacterial growth – absorbance, V66 E. coli, mutant T4 phage, counter-screen for AddAB inhibitor project, dose response (AID 492957); format: functional, cell-based, Escherichia coli str. K-12 substr. MG1655
[10] = Luminescence Cell-Based Dose Retest to Confirm Inhibitors of Cancer Stem Cells. [Related pubchem assays (depositor defined):AID2717, AID2721]; format: functional; details: Homo sapiens
[11] = Counterscreen for AddAB inhibitors: absorbance-based bacterial cell-based high throughput dose response assay for inhibitors of bacterial viability. [Related pubchem assays (depositor defined):AID435030, AID449728, AID449731, AID488942, AID488955, AID488956]; format: functional
[12] = target: Heat shock protein HSP 90-alpha (Homo sapiens, UniProt P07900); format: functional, organism-based
H9c2 = assay: cells; format: functional, cell-based; details: Rattus norvegicus, H9c2, Myocardium;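 also: confirmatory concentration-response retest of ultra-high-throughput screening hits for modulation of myocardial damage; cell death induced by hydrogen peroxide oxidative stress; compound pretreatment for 60 min then peroxide exposure for 2 h; potency is for protecting the cells against peroxide damage rather than for killing them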
[13] = target: T2, Heat shock factor protein 1 (Mus musculus, UniProt P38532); assay: decrease of HSF1-responsive luciferase luminescence – cell-based, NIH3T3, dose retest, confirmation (AID 2382); format: functional;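 also: NIH3T3 fibroblasts with HSF1-driven luciferase reporter stressed by proteasome inhibitor MG132; luminescence from HSF1-driven luciferase expression after 8 hours of MG132 stress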
T2 sequence (P38532 whole entry): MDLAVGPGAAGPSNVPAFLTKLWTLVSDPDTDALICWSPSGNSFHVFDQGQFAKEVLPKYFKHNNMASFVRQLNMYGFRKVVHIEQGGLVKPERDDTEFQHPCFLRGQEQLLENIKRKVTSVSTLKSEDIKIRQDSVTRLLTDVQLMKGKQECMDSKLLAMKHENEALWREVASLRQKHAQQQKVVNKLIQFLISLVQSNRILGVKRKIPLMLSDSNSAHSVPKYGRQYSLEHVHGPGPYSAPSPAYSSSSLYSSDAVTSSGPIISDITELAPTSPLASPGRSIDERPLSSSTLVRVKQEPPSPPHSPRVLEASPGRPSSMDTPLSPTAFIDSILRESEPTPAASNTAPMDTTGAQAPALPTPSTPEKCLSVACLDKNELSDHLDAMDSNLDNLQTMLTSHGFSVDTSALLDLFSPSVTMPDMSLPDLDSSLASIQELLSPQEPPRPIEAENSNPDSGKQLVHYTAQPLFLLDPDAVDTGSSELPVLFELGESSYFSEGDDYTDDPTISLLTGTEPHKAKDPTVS

Escherichia coli [14] = assay: microbe, parasite or virus in culture
Phospholipase D1 = Phospholipase D1 (Homo sapiens, UniProt Q13393); assay: cellular phospholipase D1 inhibition IC50 – cell-based, dose response (AID 602151); format: functional;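 also: cellular PLD1 assay in Calu-1 cells stimulated with PMA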
Phospholipase D2 = Phospholipase D2 (Homo sapiens, UniProt O14939); assay: cellular phospholipase D2 inhibition IC50 – cell-based, dose response (AID 602147); format: functional;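 also: cellular assay in HEK293 cells overexpressing GFP-tagged PLD2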
[15] = target: T3, Sentrin-specific protease 8 (Homo sapiens, UniProt Q96LD8); assay: inhibition of human SENP8 cleavage activity – biochemical, luminescence, SAR follow-up (AID 504501); format: functional
T3 sequence (Q96LD8 whole entry): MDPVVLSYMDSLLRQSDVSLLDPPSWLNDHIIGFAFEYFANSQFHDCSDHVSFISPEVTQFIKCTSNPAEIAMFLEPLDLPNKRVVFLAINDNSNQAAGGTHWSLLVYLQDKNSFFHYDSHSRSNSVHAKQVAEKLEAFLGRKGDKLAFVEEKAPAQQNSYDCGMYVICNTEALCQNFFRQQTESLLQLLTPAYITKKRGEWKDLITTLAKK

Caspase-3 = target: T4, Caspase-3 (Homo sapiens, UniProt P42574); assay: SAR Analysis of small molecule inhibitors of Sentrin-specific proteases (SENPs) using a Caspase-3 Selectivity assay. [Related pubchem assays (depositor defined):AID2540, AID2599, AID434973, AID489001]; format: functional
T4 sequence (P42574 whole entry): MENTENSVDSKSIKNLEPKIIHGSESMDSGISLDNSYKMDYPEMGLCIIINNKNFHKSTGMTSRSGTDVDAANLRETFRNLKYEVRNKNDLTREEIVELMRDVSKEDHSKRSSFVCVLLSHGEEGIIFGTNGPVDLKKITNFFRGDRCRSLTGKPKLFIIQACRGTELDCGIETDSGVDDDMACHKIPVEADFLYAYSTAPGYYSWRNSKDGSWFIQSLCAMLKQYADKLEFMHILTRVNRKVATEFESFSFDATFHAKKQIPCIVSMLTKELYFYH

[16] = target: T5, Sentrin-specific protease 6 (Homo sapiens, UniProt Q9GZR1); assay: SAR Analysis of small molecule inhibitors of Sentrin-specific protease 6 (SENP6) using a Luminescent assay. [Related pubchem assays (depositor defined):AID2582, AID2599]; format: functional
T5 sequence (Q9GZR1 whole entry): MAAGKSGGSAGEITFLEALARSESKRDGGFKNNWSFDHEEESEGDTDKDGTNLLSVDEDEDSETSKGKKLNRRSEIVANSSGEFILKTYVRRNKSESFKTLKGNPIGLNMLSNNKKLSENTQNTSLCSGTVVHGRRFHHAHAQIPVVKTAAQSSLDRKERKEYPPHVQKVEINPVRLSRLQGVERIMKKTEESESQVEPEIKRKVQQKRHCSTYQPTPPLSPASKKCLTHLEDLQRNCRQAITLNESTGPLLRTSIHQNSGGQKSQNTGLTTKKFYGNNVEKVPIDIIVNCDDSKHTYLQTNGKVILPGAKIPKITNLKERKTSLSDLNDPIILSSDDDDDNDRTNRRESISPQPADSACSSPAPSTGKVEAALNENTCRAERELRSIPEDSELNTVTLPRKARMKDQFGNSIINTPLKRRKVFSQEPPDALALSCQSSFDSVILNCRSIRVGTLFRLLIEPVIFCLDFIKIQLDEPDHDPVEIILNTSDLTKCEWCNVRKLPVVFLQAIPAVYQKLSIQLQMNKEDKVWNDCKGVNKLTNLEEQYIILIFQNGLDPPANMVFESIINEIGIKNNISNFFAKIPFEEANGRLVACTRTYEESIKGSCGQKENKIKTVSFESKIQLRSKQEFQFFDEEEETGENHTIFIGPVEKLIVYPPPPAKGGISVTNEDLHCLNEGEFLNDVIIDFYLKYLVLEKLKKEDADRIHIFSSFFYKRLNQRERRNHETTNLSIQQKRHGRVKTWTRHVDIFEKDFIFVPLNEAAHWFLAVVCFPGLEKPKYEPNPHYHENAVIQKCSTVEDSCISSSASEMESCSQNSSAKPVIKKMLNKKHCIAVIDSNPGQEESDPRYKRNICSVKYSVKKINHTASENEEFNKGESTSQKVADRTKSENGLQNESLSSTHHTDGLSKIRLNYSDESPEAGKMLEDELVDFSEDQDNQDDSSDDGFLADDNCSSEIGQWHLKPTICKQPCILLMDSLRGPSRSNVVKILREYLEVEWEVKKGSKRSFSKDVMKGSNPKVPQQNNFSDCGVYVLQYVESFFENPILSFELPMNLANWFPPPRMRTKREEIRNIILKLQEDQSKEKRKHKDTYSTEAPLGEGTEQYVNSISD

[17] = target: T6, Sentrin-specific protease 7 (Homo sapiens, UniProt Q9BQF6); assay: inhibition of human SENP7 cleavage activity – biochemical, luminescence, SAR follow-up (AID 504497); format: functional
T6 sequence (Q9BQF6 whole entry): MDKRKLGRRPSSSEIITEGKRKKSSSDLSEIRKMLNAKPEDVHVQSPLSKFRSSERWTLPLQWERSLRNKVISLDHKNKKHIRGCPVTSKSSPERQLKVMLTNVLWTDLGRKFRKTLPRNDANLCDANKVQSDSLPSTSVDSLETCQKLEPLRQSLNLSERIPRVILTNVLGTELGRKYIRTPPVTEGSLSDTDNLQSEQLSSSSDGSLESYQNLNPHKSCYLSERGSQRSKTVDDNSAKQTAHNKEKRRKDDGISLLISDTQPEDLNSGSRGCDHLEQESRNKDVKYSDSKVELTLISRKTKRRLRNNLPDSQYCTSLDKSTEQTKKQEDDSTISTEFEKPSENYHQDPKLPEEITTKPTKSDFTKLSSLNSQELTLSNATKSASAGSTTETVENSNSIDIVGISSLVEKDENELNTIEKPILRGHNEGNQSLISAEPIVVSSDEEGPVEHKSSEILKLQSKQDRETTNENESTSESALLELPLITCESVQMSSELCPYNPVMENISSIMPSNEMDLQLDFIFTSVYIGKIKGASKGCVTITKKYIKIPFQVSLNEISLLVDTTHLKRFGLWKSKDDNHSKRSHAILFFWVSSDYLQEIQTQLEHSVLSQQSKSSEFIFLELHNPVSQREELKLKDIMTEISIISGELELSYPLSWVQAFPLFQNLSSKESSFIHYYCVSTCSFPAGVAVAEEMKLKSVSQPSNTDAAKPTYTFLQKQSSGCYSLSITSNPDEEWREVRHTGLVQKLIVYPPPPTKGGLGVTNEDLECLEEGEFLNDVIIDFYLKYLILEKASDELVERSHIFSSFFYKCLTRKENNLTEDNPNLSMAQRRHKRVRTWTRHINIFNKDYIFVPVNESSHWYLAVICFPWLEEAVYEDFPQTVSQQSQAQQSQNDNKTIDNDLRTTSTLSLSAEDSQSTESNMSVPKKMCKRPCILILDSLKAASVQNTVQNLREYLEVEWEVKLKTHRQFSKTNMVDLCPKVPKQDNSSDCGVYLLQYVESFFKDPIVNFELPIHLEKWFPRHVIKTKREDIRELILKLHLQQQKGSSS

Escherichia coli [18] = assay: microbe, parasite or virus in culture; remark: listed apart in the source

T1 sequence (Q00975 whole entry): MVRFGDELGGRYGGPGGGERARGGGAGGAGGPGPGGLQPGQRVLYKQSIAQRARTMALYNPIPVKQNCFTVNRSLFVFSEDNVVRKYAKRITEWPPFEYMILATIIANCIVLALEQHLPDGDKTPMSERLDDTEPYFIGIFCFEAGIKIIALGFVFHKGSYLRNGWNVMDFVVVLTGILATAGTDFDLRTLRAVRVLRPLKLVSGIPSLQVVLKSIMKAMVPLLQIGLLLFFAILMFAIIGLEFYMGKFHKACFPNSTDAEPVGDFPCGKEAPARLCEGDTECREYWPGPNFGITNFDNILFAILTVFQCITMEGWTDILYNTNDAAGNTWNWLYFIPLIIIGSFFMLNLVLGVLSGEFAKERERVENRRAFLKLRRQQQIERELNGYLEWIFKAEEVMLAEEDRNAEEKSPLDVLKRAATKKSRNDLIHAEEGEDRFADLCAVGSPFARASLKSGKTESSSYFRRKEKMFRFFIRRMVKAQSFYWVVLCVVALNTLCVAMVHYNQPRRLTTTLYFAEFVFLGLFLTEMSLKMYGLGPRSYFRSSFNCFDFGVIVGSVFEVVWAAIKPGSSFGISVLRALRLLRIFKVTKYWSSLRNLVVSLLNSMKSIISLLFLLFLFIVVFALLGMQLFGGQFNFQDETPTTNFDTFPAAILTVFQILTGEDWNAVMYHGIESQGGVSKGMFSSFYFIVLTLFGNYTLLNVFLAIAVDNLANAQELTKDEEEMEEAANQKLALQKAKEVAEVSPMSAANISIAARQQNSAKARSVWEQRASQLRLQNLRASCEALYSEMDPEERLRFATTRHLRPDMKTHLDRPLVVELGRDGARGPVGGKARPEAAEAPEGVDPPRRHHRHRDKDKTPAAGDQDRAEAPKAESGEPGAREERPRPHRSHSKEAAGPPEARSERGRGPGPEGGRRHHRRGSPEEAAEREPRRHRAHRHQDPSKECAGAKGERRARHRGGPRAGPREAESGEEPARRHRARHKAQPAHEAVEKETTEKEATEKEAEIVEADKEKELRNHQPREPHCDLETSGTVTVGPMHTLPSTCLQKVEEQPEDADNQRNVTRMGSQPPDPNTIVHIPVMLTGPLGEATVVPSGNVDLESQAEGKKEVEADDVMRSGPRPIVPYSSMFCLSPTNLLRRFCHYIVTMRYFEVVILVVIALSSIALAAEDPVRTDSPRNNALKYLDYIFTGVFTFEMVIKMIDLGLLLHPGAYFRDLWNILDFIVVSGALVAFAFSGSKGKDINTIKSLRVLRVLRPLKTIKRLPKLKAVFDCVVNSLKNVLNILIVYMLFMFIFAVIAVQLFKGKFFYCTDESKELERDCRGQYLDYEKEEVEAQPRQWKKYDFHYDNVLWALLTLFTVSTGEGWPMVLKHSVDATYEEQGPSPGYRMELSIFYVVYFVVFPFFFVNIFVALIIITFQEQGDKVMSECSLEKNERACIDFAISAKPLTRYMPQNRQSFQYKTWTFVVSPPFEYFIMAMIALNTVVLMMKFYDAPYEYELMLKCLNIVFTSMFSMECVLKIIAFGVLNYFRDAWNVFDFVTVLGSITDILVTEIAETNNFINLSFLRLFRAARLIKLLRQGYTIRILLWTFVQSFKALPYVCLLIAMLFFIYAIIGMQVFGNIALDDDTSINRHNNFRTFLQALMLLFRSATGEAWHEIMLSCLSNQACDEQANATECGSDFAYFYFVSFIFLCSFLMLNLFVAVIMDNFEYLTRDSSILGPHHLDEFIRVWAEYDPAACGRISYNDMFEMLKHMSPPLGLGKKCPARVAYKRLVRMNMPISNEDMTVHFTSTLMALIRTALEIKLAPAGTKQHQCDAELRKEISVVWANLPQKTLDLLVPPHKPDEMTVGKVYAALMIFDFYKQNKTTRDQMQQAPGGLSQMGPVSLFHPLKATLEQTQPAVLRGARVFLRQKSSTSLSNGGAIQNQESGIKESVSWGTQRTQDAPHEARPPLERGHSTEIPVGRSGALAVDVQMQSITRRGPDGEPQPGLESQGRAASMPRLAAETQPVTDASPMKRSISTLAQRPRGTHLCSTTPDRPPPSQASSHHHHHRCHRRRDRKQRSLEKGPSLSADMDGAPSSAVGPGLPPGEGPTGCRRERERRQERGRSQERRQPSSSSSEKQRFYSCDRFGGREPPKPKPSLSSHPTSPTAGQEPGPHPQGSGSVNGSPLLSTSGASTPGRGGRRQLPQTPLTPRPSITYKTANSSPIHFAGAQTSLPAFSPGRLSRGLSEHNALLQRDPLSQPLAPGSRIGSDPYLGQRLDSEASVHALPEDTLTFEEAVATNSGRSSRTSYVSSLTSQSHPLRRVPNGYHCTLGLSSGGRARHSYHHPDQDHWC
T1 sequence (Q02410 whole entry): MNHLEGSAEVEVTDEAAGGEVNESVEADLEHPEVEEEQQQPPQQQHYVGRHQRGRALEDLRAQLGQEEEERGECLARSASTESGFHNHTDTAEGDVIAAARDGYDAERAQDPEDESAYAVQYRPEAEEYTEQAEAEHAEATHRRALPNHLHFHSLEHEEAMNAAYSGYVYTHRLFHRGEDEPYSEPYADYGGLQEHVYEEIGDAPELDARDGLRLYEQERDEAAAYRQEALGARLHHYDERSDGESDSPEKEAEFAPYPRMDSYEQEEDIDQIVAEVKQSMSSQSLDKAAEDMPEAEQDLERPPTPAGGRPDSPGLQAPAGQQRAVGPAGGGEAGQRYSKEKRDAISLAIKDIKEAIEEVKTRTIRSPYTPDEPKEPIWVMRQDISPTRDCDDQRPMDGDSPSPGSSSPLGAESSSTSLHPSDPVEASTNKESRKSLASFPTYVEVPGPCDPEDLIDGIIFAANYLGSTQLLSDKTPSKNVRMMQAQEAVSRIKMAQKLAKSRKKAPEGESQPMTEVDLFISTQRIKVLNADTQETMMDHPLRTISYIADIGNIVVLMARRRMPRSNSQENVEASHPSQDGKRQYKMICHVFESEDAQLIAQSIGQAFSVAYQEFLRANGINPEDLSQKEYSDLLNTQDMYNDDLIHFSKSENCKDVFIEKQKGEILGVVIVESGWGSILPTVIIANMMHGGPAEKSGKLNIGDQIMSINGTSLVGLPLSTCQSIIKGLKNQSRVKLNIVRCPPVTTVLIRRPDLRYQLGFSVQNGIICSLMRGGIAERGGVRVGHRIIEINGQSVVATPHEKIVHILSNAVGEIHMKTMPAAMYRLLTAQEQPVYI
Phospholipase D2, sequence (O14939 whole entry): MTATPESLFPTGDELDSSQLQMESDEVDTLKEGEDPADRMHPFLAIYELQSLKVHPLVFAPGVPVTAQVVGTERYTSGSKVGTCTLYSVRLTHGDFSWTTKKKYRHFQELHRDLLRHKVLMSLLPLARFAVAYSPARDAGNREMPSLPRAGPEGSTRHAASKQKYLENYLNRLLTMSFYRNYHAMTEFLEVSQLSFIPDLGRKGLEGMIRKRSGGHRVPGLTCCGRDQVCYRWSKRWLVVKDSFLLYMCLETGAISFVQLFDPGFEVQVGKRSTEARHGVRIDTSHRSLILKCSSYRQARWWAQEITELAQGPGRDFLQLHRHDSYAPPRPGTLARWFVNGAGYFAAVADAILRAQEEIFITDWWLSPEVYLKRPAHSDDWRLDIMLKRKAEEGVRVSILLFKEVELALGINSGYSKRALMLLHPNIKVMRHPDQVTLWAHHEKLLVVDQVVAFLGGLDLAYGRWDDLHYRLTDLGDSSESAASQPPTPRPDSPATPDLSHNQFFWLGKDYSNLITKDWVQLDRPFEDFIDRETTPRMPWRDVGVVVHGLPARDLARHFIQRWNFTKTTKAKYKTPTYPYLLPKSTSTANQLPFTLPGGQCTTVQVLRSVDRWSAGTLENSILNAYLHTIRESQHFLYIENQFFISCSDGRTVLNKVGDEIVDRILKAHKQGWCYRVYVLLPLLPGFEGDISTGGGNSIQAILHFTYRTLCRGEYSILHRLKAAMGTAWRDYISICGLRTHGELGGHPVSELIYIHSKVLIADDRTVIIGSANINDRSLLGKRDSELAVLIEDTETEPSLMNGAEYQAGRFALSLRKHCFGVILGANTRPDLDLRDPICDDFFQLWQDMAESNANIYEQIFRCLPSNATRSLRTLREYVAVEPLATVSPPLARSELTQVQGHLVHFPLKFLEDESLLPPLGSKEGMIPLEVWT
DNA repair protein RAD52 homolog, sequence (P43351 whole entry): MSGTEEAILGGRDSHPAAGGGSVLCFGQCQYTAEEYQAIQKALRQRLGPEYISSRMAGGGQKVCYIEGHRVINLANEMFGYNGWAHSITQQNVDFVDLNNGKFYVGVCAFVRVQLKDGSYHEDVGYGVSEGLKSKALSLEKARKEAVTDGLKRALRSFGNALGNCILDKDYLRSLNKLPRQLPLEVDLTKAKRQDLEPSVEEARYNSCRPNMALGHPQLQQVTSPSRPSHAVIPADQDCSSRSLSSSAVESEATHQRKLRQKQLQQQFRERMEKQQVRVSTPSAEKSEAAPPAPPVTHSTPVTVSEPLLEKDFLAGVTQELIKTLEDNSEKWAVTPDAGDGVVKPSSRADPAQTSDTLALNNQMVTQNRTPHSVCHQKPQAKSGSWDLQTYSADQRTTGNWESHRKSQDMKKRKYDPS

CCOc1ccc(N(CC(=O)Nc2ccc(OC)cc2)S(C)(=O)=O)cc1
AC50 (A-375 [1]): > 35 µM (active) | AC50 (A-375 [2]): > 35 µM (active)

CCOc1ccc(-c2nc(CSCC(=O)NCCc3ccccc3)c(C)o2)cc1
IC50 (Jurkat): 55 µM (inactive) | IC50 (HEK293 [3]): 22.9 µM (inactive) | IC50 (HEK293 [4]): 35.6 µM (inactive)

CCN(CC)CCNC(=O)c1cc(-c2ccco2)nc2ccccc12
IC50 (SUMO E1/E2): 2.01 µM (active) | IC50 [5]: 6 µM (active) | IC50 [6]: 5.19 µM (active) | AC50 [7]: 11.7 µM (active)

O=C1c2ccccc2NC(c2ccc(-c3ccc(Br)cc3)o2)N1O (stereo unspecified)
EC50 [8]: > 150 µM (inconclusive) | EC50 [9]: > 38 µM (not active) | IC50 (Exodeoxyribonuclease V): > 119 µM (inactive) | AC50 [10]: 4.35 µM (active) | IC50 [11]: > 119 µM (inactive) | AC50 [12]: 6.74 µM (active) | IC50 (H9c2): > 79 µM (inactive)

CCN1CCN(CCCNc2[nH]cnc3ncnc2-3)CC1
EC50 [13]: > 195 µM (not active) | AC50 (Escherichia coli [14]): 74.1 µM (active)

C[C@@H](CN1CCC(n2c(=O)[nH]c3ccccc32)CC1)NC(=O)c1ccco1
IC50 (Phospholipase D1): 0.19 µM (active) | IC50 (Phospholipase D2): 7.9 µM (active)

COc1ccccc1CC(=O)Nc1ccc(-c2noc(/C=C/c3ccccc3)n2)cc1
IC50 [15]: > 99 µM (inactive) | IC50 (Caspase-3): > 99 µM (inactive) | IC50 [16]: > 99 µM (inactive) | IC50 [17]: > 99 µM (inactive)

O=C(NCCN1CCC2(CC1)C(=O)NCN2c1ccc(Cl)cc1)c1ccc(Cl)cc1
IC50 (Phospholipase D1): 3.59 µM (active) | IC50 (Phospholipase D2): 0.635 µM (active)

CC(C)CNC(=O)CCc1nc(-c2ccc(C(C)(C)C)cc2)no1
IC50 (Jurkat): 2.97 µM (active) | IC50 (HEK293 [3]): 1.51 µM (active) | IC50 (HEK293 [4]): > 80 µM (inactive)

Cc1ccc(C2CC2/C(=N/O)c2ccc(F)cc2)cc1 (stereo unspecified)
AC50 (Escherichia coli [18]): 25.9 µM (active) | AC50 (Escherichia coli [14]): 53.3 µM (active)
